We go through one cell line from the supplement of paper PMC10307832.

Holding throughout (assay): relative viability (nuclei count vs DMSO), 5 days (fraction); higher = more cells survive
Compound in assay [1]: CC1=CC=C(C=C1)C(=O)CN2C3=C(CCCC3)SC2=N [Pifithrin_alpha] + COc1cc2c(Oc3ccc(NC(=O)C4(C(=O)Nc5ccc(F)cc5)CC4)cc3F)ccnc2cc1OCCCN1CCOCC1 [Foretinib] (partner 0.25 µM)
Summed up:
(§1)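 The day after seeding in 1536-well plates, lung cancer cell lines were treated by pin tool with a single drug, or with a fixed anchor-drug dose together with five library-drug doses (not always all listed) in √10 steps. After 5 days, a combined fix-and-stain solution (final 0.05% Triton X-100, 1% formaldehyde, 1 ug/ml Hoechst) was added. Nuclei counted on 4× images gave relative viability as treated counts over vehicle counts, reported as the median of duplicate plates.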

Compound in assay [2]: CNC(=O)c1ccccc1Sc1ccc2c(/C=C/c3ccccn3)n[nH]c2c1 [Axitinib] + CS(=O)(=O)N1CCN(Cc2cc3nc(-c4cccc5[nH]ncc45)nc(N4CCOCC4)c3s2)CC1 [Pictilisib] (partner 1 µM)
The method, boiled down:
as §1

Compound in assay [3]: Nc1nc(Nc2ccc3c(c2)CC[C@@H](N2CCCC2)CC3)nn1-c1cc2c(nn1)-c1ccccc1CCC2 [Bemcentinib] + COc1cccc2cc(-c3nc([C@H]4CC[C@H](C(=O)O)CC4)n4ncnc(N)c34)[nH]c12 [OSI-027] (partner 0.5 µM)
Summed up:
as §1

Compound in assay [4]: Nc1nc(Nc2ccc3c(c2)CC[C@@H](N2CCCC2)CC3)nn1-c1cc2c(nn1)-c1ccccc1CCC2 [Bemcentinib] + Cc1nc(Nc2ncc(C(=O)Nc3c(C)cccc3Cl)s2)cc(N2CCN(CCO)CC2)n1 [Dasatinib] (partner 0.075 µM)
Summed up:
as §1

As for NCI-H650, the relative viability in assay [1] (first compound 3.162 µM) stood at 0.996; in assay [1] (first compound 10 µM), 1.05; in assay [1] (first compound 31.62 µM), 0.793; in assay [1] (first compound 100 µM), 0.902; in assay [2] (first compound 0.005 µM), 0.9; in assay [2] (first compound 0.01581 µM), 1.03. Also, the relative viability in assay [2] (first compound 0.05 µM) turned out to be 0.764; in assay [2] (first compound 0.1581 µM) it was 0.945; in assay [2] (first compound 0.5 µM) it was 0.846; in assay [3] (first compound 0.04 µM), 0.468; in assay [3] (first compound 0.1265 µM), 0.501; in assay [3] (first compound 0.4 µM), 0.582. In addition, the relative viability in assay [3] (first compound 1.265 µM) came to 0.496; in assay [3] (first compound 4 µM) it was 0.512; in assay [4] (first compound 0.04 µM), 0.424; in assay [4] (first compound 0.1265 µM) it was 0.514; in assay [4] (first compound 0.4 µM) it was 0.474; in assay [4] (first compound 1.265 µM) it was 0.43. For the same cell line, in assay [4] (first compound 4 µM), the relative viability turned out to be 0.4.
